The text below walks through data of patent publication EP0719281B1, “MULTIPLE BRANCH PEPTIDE CONSTRUCTIONS FOR USE AGAINST HIV” (priority 1993, dated 1995).

Data set [1] deals with RT-deficient HIV-I(IIIB) isolate. Kind of data set: Inhibition of HIV-I induced cell fusion (8E5 cells co-cultivated with PHA stimulated human PBLs). In kind it is cell-based. Particulars: for Inhibition of HIV-I induced cell fusion (number of syncytia): after 24 hours. The source says:
50 x 10^3 8E5 cells chronically infected with a RT-deficient HIV-I(IIIB) isolate, were co-cultivated with 150 x 10^3 phytohemagglutinin (PHA) stimulated human peripheral blood lymphocytes (PBLs) in the presence of the indicated peptide in 96-well plates. The MBPCs used are described by the peptides attached, and the number thereof, to a core lysine matrix, which is designated MLC. All amino acids used for this experiment were in dextro form.

For data set [2], the system named is 8E5 cells. Briefly: Toxicity in the cell fusion test (MTT assay or trypan blue exclusion). Particulars: Concentration (M) 5x10^-5. A general note: Tetrazolium assays rely on reduction of a dye to a coloured formazan, in cell work by metabolically active cells.
Procedure: Toxicity was evaluated by either MTT assay (described below) or trypan blue exclusion technique.
(§1) An MTT assay, a colorimetric cell viability assay using 3-[4,5-Dimethylthiazol-2-yl] 2,5-diphenyltetrazolium bromide, was used to assess the effect of MBPCs on cell viability. CEM or C8166 cells (5x10^4) were cultured continuously (15 days) in the presence of various concentrations of MBPCs in the wells of 96-well microtiter plates in 200 µl final volume of RPMI 1640 medium supplemented with 5% fetal calf serum, 1% glutamine, 1% streptomycin-penicillin (available from Gibco of Irvine, Scotland) in a humidified atmosphere with 5% CO2. Every 3 to 4 days, an MTT assay was performed on 100 µl of cells suspension and MBPC were added to cell culture and the volume completed to 200 µl.
Data set [3] concerns CEM or C8166 cells. Particulars: concentrations of 10^-7 to 10^-4M; 15 days.
Procedure: as §1
Data set [4] deals with HIV-1(89.6). Kind of data set: Infection of and syncytia formation in human primary macrophages. In kind it is cell-based. Particulars: MBPC 5x10^-5M; 10,000 TCID50; 4 days post-infection. The source says:
Mononuclear cells were isolated from leukophoresis units enriched for monocytes by Ficoll-Hypaque density separation. Macrophages were purified by adherence to plastic in RPMI 1640 supplemented with 10% fetal calf serum and 5% human AB serum. […] After thorough washing, the cells were fed again with medium and analyzed for HIV-1 p24^gag production and syncytia formation 4 days post-infection.

“Also recorded” adds a separate entry of the source. Bridge positions count the residues as written; N and C are the ends. Square brackets hold non-standard residues; d marks the D form. Ends that are not written are not given here. I, II: the chains in the order shown. βAla = NCCC(=O)O

On to [Ac-GPGRAF]8-MLC, for which, in data set [1], the “syncytia formation / cell fusion (in words)” value is recorded as “significant loss of activity”. Further, the “Inhibition of HIV-I induced cell fusion (number of syncytia)” value (“Inhibition of HIV-I induced cell fusion” below) was “- (- indicates the total absence of syncytia in the well)” in data set [1] (Concentration (M) 5x10^-5), “+++” in data set [1] (Concentration (M) 5 x10^-6) and “+++” in data set [1] (Concentration (M) 5x10^-7).

As for [RKSIHTGPGRAFYT]4-MLC, the “Inhibition of HIV-I induced cell fusion” value was “- (- indicates the total absence of syncytia in the well)” in data set [1] (Concentration (M) 5 x10^-6) and “+++” in data set [1] (Concentration (M) 5x10^-7). For the same molecule, the Toxicity entry in data set [2] is “Toxic”.

For [RKSIHKGPGRAFYT]4-MLC, the “Inhibition of HIV-I induced cell fusion” value in data set [1] (Concentration (M) 5 x10^-6) is “- (- indicates the total absence of syncytia in the well)”; in data set [1] (Concentration (M) 5x10^-7), “+++”. The Toxicity entry in data set [2] was “Toxic”.

As for [GPGRA]8-MLC, in data set [1], the “syncytia formation / cell fusion (in words)” value was “did not inhibit cell fusion”. Besides, the “Inhibition of HIV-I induced cell fusion” value in data set [1] (Concentration (M) 5x10^-5), in data set [1] (Concentration (M) 5 x10^-6) and in data set [1] (Concentration (M) 5x10^-7) was “+++” in each case.

As to “I: RKSIHIGPGRAFYTKK[βAla] / II: RKSIHIGPGRAFYTK / III: RKSIHIGPGRAFYT / IV: RKSIHIGPGRAFYT (amide I:15-IV:C, I:16-II:C, II:15-III:C) [MBPC.5]”, in data set [2] (listed as [RKSIHIGPGRAFYT]4-MLC), the Toxicity result was “some toxicity; also recorded: Toxic”.

In the case of `C[C@H](NC(=O)[C@H](CCCNC(=N)N)NC(=O)CNC(=O)[C@@H]1CCCN1C(=O)CN)C(=O)N[C@@H](Cc1ccccc1)C(=O)NCCCC[C@H](NC(=O)[C@H](Cc1ccccc1)NC(=O)[C@H](C)NC(=O)[C@H](CCCNC(=N)N)NC(=O)CNC(=O)[C@@H]1CCCN1C(=O)CN)C(=O)NCCCC[C@H](NC(=O)[C@H](CCCCNC(=O)[C@H](Cc1ccccc1)NC(=O)[C@H](C)NC(=O)[C@H](CCCNC(=N)N)NC(=O)CNC(=O)[C@@H]1CCCN1C(=O)CN)NC(=O)[C@H](Cc1ccccc1)NC(=O)[C@H](C)NC(=O)[C@H](CCCNC(=N)N)NC(=O)CNC(=O)[C@@H]1CCCN1C(=O)CN)C(=O)NCCCC[C@H](NC(=O)[C@H](CCCCNC(=O)[C@H](CCCCNC(=O)[C@H](Cc1ccccc1)NC(=O)[C@H](C)NC(=O)[C@H](CCCNC(=N)N)NC(=O)CNC(=O)[C@@H]1CCCN1C(=O)CN)NC(=O)[C@H](Cc1ccccc1)NC(=O)[C@H](C)NC(=O)[C@H](CCCNC(=N)N)NC(=O)CNC(=O)[C@@H]1CCCN1C(=O)CN)NC(=O)[C@H](CCCCNC(=O)[C@H](Cc1ccccc1)NC(=O)[C@H](C)NC(=O)[C@H](CCCNC(=N)N)NC(=O)CNC(=O)[C@@H]1CCCN1C(=O)CN)NC(=O)[C@H](Cc1ccccc1)NC(=O)[C@H](C)NC(=O)[C@H](CCCNC(=N)N)NC(=O)CNC(=O)[C@@H]1CCCN1C(=O)CN)C(=O)NCCC(=O)O` [MBPC.3, (GPGRAF)8-(K)4-(K)2-K-βA-OH], the “toxicity to cells (MTT assay)” value in data set [3] is “not toxic”.

Consider [IGPGRAF]8-MLC, for which the “syncytia formation / cell fusion (in words)” value in data set [1] is reported as “significant loss of activity”. In addition, the “Inhibition of HIV-I induced cell fusion” value in data set [1] (Concentration (M) 5x10^-5) is given as “- (- indicates the total absence of syncytia in the well)”; in data set [1] (Concentration (M) 5 x10^-6), “±”; in data set [1] (Concentration (M) 5x10^-7), “+++”.

For the molecule [GPGRAF]8-MLCD, the “Inhibition of HIV-I induced cell fusion” value in data set [1] (Concentration (M) 5x10^-5), in data set [1] (Concentration (M) 5 x10^-6) and in data set [1] (Concentration (M) 5x10^-7) was “+++” in each case. In addition, the “infection of macrophages (in words)” value in data set [4] is “significantly less active than [GPGRAF]8-MLC”.

With [GPGR]8-MLC, the “syncytia formation / cell fusion (in words)” value in data set [1] is given as “did not inhibit cell fusion”. The “Inhibition of HIV-I induced cell fusion” value in data set [1] (Concentration (M) 5x10^-5), in data set [1] (Concentration (M) 5 x10^-6) and in data set [1] (Concentration (M) 5x10^-7) was “+++” in each case.

With `C[C@H](NC(=O)[C@@H](CCCNC(=N)N)NC(=O)CNC(=O)[C@@H]1CCCN1C(=O)CN)C(=O)N[C@@H](Cc1ccccc1)C(=O)NCCCC[C@H](NC(=O)[C@H](Cc1ccccc1)NC(=O)[C@H](C)NC(=O)[C@@H](CCCNC(=N)N)NC(=O)CNC(=O)[C@@H]1CCCN1C(=O)CN)C(=O)NCCCC[C@H](NC(=O)[C@H](CCCCNC(=O)[C@H](Cc1ccccc1)NC(=O)[C@H](C)NC(=O)[C@@H](CCCNC(=N)N)NC(=O)CNC(=O)[C@@H]1CCCN1C(=O)CN)NC(=O)[C@H](Cc1ccccc1)NC(=O)[C@H](C)NC(=O)[C@@H](CCCNC(=N)N)NC(=O)CNC(=O)[C@@H]1CCCN1C(=O)CN)C(=O)NCCCC[C@H](NC(=O)[C@H](CCCCNC(=O)[C@H](CCCCNC(=O)[C@H](Cc1ccccc1)NC(=O)[C@H](C)NC(=O)[C@@H](CCCNC(=N)N)NC(=O)CNC(=O)[C@@H]1CCCN1C(=O)CN)NC(=O)[C@H](Cc1ccccc1)NC(=O)[C@H](C)NC(=O)[C@@H](CCCNC(=N)N)NC(=O)CNC(=O)[C@@H]1CCCN1C(=O)CN)NC(=O)[C@H](CCCCNC(=O)[C@H](Cc1ccccc1)NC(=O)[C@H](C)NC(=O)[C@@H](CCCNC(=N)N)NC(=O)CNC(=O)[C@@H]1CCCN1C(=O)CN)NC(=O)[C@H](Cc1ccccc1)NC(=O)[C@H](C)NC(=O)[C@@H](CCCNC(=N)N)NC(=O)CNC(=O)[C@@H]1CCCN1C(=O)CN)C(=O)NCCC(=O)O` [[GPG(R)DAF]8-MLC], the Toxicity result in data set [2] is given as “Toxic”.
